Measurements: PubChem BioAssay (NCI)
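Cells were grown in 96-well plates and exposed to each compound for 48 hours at five concentrations; endpoints were interpolated linearly between bracketing concentrations, or set to the highest concentration if not reached. TGI: total growth inhibition.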

Assays:
Experiment in all cases: NCI anticancer screen, dose series, 48 h
786-0 renal = test system: 786-0 renal
A498 renal = test system: A498 renal
ACHN renal = test system: ACHN renal
BT-549 breast = test system: BT-549 breast
CAKI-1 renal = test system: CAKI-1 renal
COLO 205 colon = test system: COLO 205 colon
DU-145 prostate = test system: DU-145 prostate
EKVX NSCLC = test system: EKVX NSCLC
HCC-2998 colon = test system: HCC-2998 colon
HCT-116 colon = test system: HCT-116 colon
HCT-15 colon = test system: HCT-15 colon
HL-60(TB) leukemia = test system: HL-60(TB) leukemia
HOP-62 NSCLC = test system: HOP-62 NSCLC
HOP-92 NSCLC = test system: HOP-92 NSCLC
HS 578T breast = test system: HS 578T breast
IGROV1 ovarian = test system: IGROV1 ovarian
K-562 leukemia = test system: K-562 leukemia
LOX IMVI melanoma = test system: LOX IMVI melanoma
M14 melanoma = test system: M14 melanoma
MALME-3M melanoma = test system: MALME-3M melanoma
MCF7 breast = test system: MCF7 breast
MDA-MB-231 breast = test system: MDA-MB-231 breast
MDA-MB-435 = test system: MDA-MB-435
MDA-N = test system: MDA-N
MOLT-4 leukemia = test system: MOLT-4 leukemia
NCI-H226 lung = test system: NCI-H226 lung
NCI-H23 lung = test system: NCI-H23 lung
NCI-H460 lung = test system: NCI-H460 lung
NCI-H522 lung = test system: NCI-H522 lung
NCI/ADR-RES ovarian = test system: NCI/ADR-RES ovarian
OVCAR-3 ovarian = test system: OVCAR-3 ovarian
OVCAR-4 ovarian = test system: OVCAR-4 ovarian
OVCAR-5 ovarian = test system: OVCAR-5 ovarian
OVCAR-8 ovarian = test system: OVCAR-8 ovarian
PC-3 prostate = test system: PC-3 prostate
RPMI-8226 leukemia = test system: RPMI-8226 leukemia
RXF 393 renal = test system: RXF 393 renal
SF-268 CNS = test system: SF-268 CNS
SF-295 CNS = test system: SF-295 CNS
SF-539 CNS = test system: SF-539 CNS
SK-MEL-2 melanoma = test system: SK-MEL-2 melanoma
SK-MEL-28 melanoma = test system: SK-MEL-28 melanoma
SK-OV-3 ovarian = test system: SK-OV-3 ovarian
SN12C renal = test system: SN12C renal
SNB-19 CNS = test system: SNB-19 CNS
SNB-75 CNS = test system: SNB-75 CNS
SR leukemia = test system: SR leukemia
T-47D breast = test system: T-47D breast
U251 CNS = test system: U251 CNS
UACC-257 melanoma = test system: UACC-257 melanoma
UO-31 renal = test system: UO-31 renal
A549 NSCLC = test system: A549 NSCLC
HT29 colon = test system: HT29 colon
KM12 colon = test system: KM12 colon
SK-MEL-5 melanoma = test system: SK-MEL-5 melanoma
SW-620 colon = test system: SW-620 colon
TK-10 renal = test system: TK-10 renal
UACC-62 melanoma = test system: UACC-62 melanoma

O=[N+]([O-])c1ccc2c(c1)c1nn2CCCCOc2nn(c3ccc([N+](=O)[O-])cc23)CCCCO1
TGI (786-0 renal): > 100 µM | TGI (A498 renal): > 100 µM | TGI (ACHN renal): > 100 µM | TGI (BT-549 breast): > 100 µM | TGI (CAKI-1 renal): > 100 µM | TGI (COLO 205 colon): > 100 µM | TGI (DU-145 prostate): > 100 µM | TGI (EKVX NSCLC): > 100 µM | TGI (HCC-2998 colon): > 100 µM | TGI (HCT-116 colon): > 100 µM | TGI (HCT-15 colon): > 100 µM | TGI (HL-60(TB) leukemia): > 100 µM | TGI (HOP-62 NSCLC): > 100 µM | TGI (HOP-92 NSCLC): > 100 µM | TGI (HS 578T breast): > 100 µM | TGI (IGROV1 ovarian): > 100 µM | TGI (K-562 leukemia): > 100 µM | TGI (LOX IMVI melanoma): > 100 µM | TGI (M14 melanoma): > 100 µM | TGI (MALME-3M melanoma): > 100 µM | TGI (MCF7 breast): > 100 µM | TGI (MDA-MB-231 breast): > 100 µM | TGI (MDA-MB-435): > 100 µM | TGI (MDA-N): > 100 µM | TGI (MOLT-4 leukemia): > 100 µM | TGI (NCI-H226 lung): > 100 µM | TGI (NCI-H23 lung): > 100 µM | TGI (NCI-H460 lung): > 100 µM | TGI (NCI-H522 lung): > 100 µM | TGI (NCI/ADR-RES ovarian): > 100 µM | TGI (OVCAR-3 ovarian): > 100 µM | TGI (OVCAR-4 ovarian): > 100 µM | TGI (OVCAR-5 ovarian): > 100 µM | TGI (OVCAR-8 ovarian): > 100 µM | TGI (PC-3 prostate): > 100 µM | TGI (RPMI-8226 leukemia): > 100 µM | TGI (RXF 393 renal): > 100 µM | TGI (SF-268 CNS): > 100 µM | TGI (SF-295 CNS): > 100 µM | TGI (SF-539 CNS): > 100 µM | TGI (SK-MEL-2 melanoma): > 100 µM | TGI (SK-MEL-28 melanoma): > 100 µM | TGI (SK-OV-3 ovarian): > 100 µM | TGI (SN12C renal): > 100 µM | TGI (SNB-19 CNS): > 100 µM | TGI (SNB-75 CNS): > 100 µM | TGI (SR leukemia): > 100 µM | TGI (T-47D breast): > 100 µM | TGI (U251 CNS): > 100 µM | TGI (UACC-257 melanoma): > 100 µM | TGI (UO-31 renal): > 100 µM

c1ccc2c(c1)c1c(n2CCOCCCN2CCCCC2)CCCC1
TGI (A498 renal): 91.9 µM | TGI (A549 NSCLC): 39.2 µM | TGI (ACHN renal): 28.4 µM | TGI (BT-549 breast): 29.6 µM | TGI (CAKI-1 renal): 39.3 µM | TGI (COLO 205 colon): 45.5 µM | TGI (DU-145 prostate): > 100 µM | TGI (EKVX NSCLC): 62.5 µM | TGI (HCC-2998 colon): 33.7 µM | TGI (HCT-15 colon): 27.6 µM | TGI (HL-60(TB) leukemia): 30.4 µM | TGI (HOP-62 NSCLC): 30.6 µM | TGI (HOP-92 NSCLC): 58.1 µM | TGI (HS 578T breast): 47.8 µM | TGI (HT29 colon): 24.7 µM | TGI (IGROV1 ovarian): 29.2 µM | TGI (K-562 leukemia): 30.9 µM | TGI (KM12 colon): 30 µM | TGI (M14 melanoma): > 100 µM | TGI (MALME-3M melanoma): 33.3 µM | TGI (MCF7 breast): 31.5 µM | TGI (MDA-MB-231 breast): 40.1 µM | TGI (MDA-MB-435): 33.8 µM | TGI (MDA-N): 47.8 µM | TGI (MOLT-4 leukemia): 19.6 µM | TGI (NCI-H226 lung): 32.5 µM | TGI (NCI-H23 lung): 37.9 µM | TGI (NCI-H460 lung): 29.8 µM | TGI (NCI-H522 lung): 29.8 µM | TGI (NCI/ADR-RES ovarian): 40.6 µM | TGI (OVCAR-3 ovarian): 30.7 µM | TGI (OVCAR-4 ovarian): 57 µM | TGI (OVCAR-5 ovarian): 30 µM | TGI (OVCAR-8 ovarian): 32.5 µM | TGI (PC-3 prostate): 33.1 µM | TGI (RPMI-8226 leukemia): 92 µM | TGI (RXF 393 renal): 25.1 µM | TGI (SF-268 CNS): 99.8 µM | TGI (SF-539 CNS): 31.3 µM | TGI (SK-MEL-2 melanoma): 37.6 µM | TGI (SK-MEL-28 melanoma): 38.5 µM | TGI (SK-MEL-5 melanoma): 40.7 µM | TGI (SN12C renal): 34.3 µM | TGI (SNB-19 CNS): 75.4 µM | TGI (SNB-75 CNS): 38.7 µM | TGI (SR leukemia): 35.1 µM | TGI (SW-620 colon): 39.6 µM | TGI (T-47D breast): 43.9 µM | TGI (TK-10 renal): 31.9 µM | TGI (U251 CNS): 30.5 µM | TGI (UACC-257 melanoma): 32.9 µM | TGI (UO-31 renal): 25.4 µM

Cc1ccccc1OC(C)C(=O)NN1C(=O)CC(=O)NC1=S (stereo unspecified)
TGI (786-0 renal): > 100 µM | TGI (A498 renal): > 100 µM | TGI (A549 NSCLC): > 100 µM | TGI (ACHN renal): > 100 µM | TGI (BT-549 breast): > 100 µM | TGI (CAKI-1 renal): > 100 µM | TGI (COLO 205 colon): > 100 µM | TGI (DU-145 prostate): > 100 µM | TGI (EKVX NSCLC): > 100 µM | TGI (HCC-2998 colon): > 100 µM | TGI (HCT-116 colon): > 100 µM | TGI (HCT-15 colon): > 100 µM | TGI (HL-60(TB) leukemia): > 100 µM | TGI (HOP-62 NSCLC): > 100 µM | TGI (HOP-92 NSCLC): > 100 µM | TGI (HS 578T breast): > 100 µM | TGI (HT29 colon): > 100 µM | TGI (IGROV1 ovarian): > 100 µM | TGI (K-562 leukemia): > 100 µM | TGI (KM12 colon): > 100 µM | TGI (LOX IMVI melanoma): > 100 µM | TGI (M14 melanoma): > 100 µM | TGI (MALME-3M melanoma): > 100 µM | TGI (MCF7 breast): > 100 µM | TGI (MDA-MB-231 breast): > 100 µM | TGI (MDA-MB-435): > 100 µM | TGI (MDA-N): > 100 µM | TGI (MOLT-4 leukemia): > 100 µM | TGI (NCI-H226 lung): > 100 µM | TGI (NCI-H23 lung): > 100 µM | TGI (NCI-H460 lung): > 100 µM | TGI (NCI-H522 lung): > 100 µM | TGI (NCI/ADR-RES ovarian): > 100 µM | TGI (OVCAR-3 ovarian): > 100 µM | TGI (OVCAR-4 ovarian): > 100 µM | TGI (OVCAR-5 ovarian): > 100 µM | TGI (OVCAR-8 ovarian): > 100 µM | TGI (PC-3 prostate): > 100 µM | TGI (RPMI-8226 leukemia): > 100 µM | TGI (RXF 393 renal): > 100 µM | TGI (SF-268 CNS): > 100 µM | TGI (SF-295 CNS): > 100 µM | TGI (SF-539 CNS): > 100 µM | TGI (SK-MEL-2 melanoma): > 100 µM | TGI (SK-MEL-28 melanoma): > 100 µM | TGI (SK-MEL-5 melanoma): > 100 µM | TGI (SK-OV-3 ovarian): > 100 µM | TGI (SN12C renal): > 100 µM | TGI (SNB-19 CNS): > 100 µM | TGI (SNB-75 CNS): > 100 µM | TGI (SR leukemia): > 100 µM | TGI (SW-620 colon): > 100 µM | TGI (T-47D breast): > 100 µM | TGI (TK-10 renal): > 100 µM | TGI (U251 CNS): > 100 µM | TGI (UACC-257 melanoma): > 100 µM | TGI (UACC-62 melanoma): > 100 µM | TGI (UO-31 renal): > 100 µM
